Measurements published in patent US20260165323A1, “USE OF STROBILURIN TYPE COMPOUNDS FOR COMBATING PHYTOPATHOGENIC FUNGI CONTAINING AN AMINO ACID SUBSTITUTION F129L IN THE MITOCHONDRIAL CYTOCHROME B PROTEIN CONFERRING RESISTANCE TO QO […]” (priority 2022, published 2026).

Key:
[1] = system: Phakopsora pachyrhizi containing the amino acid substitution F129L in the mitochondrial cytochrome b protein; test: Use Example 1: protective control of soybean rust on soybeans (PHAKPA P2); format: in vivo; settings: inoculated 2 days after spraying, % diseased leaf area
Method in brief: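 Soybean seedling leaves sprayed to run-off with compound in acetone/DMSO–Wettol–water at the stated concentration, kept 2 days at 23-27° C, then inoculated with Qo-inhibitor-resistant F129L P. pachyrhizi. After 24 h at ~95% RH, 20-24° C, and up to 14 days in greenhouse, % diseased leaf area scored visually.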

Puccinia recondita [2] = test: Use Example 3: curative control of brown rust on wheat (PUCCRT K4); format: in vivo; settings: % diseased leaf area
Method in brief: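 Wheat seedlings inoculated with Puccinia recondita spores, held 24 h at 95–99% RH, 20–24° C in dark, then 3 days in greenhouse before spraying to run-off (curative). Compound in acetone/DMSO–Wettol–water. After 5–7 further days at 20–24° C, 65–70% RH, % diseased leaf area scored visually.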

[3] = system: Cercospora sojina (CERCSO); test: Use example 7: microtest, growth of Cercospora sojina (CERCSO); format: cell-based; settings: relative growth vs compound-free control (100%); for Growth at 31 ppm (%) CERCSO Use ex. 7: 7 days after inoculation; for Growth (%) CERCSO Use ex. 7: 125 ppm, 7 days, Table 12
Method: (§1) The active compounds were formulated separately as a stock solution having a concentration of 10000 ppm in dimethyl sulfoxide. The stock solutions were mixed according to the ratio, pipetted onto a micro titer plate (MTP) and diluted with water to the stated concentrations. A spore suspension of one of the following fungal plant pathogens in aqueous bio malt solution • was then added for the respective use example: • Use example 5: Alternaria solani (ALTESO) • Use example 6: Botrytis cinerea (BOTRCI) • Use example 7: Cercospora sojina (CERCSO) • Use example 8: Colletotrichum orbiculare (COLLLA) • Use example 9: Leptosphaeria nodorum (LEPTNO) • Use example 10: Drechslera teres (PYRNTE) containing the amino acid substitution F129L in the mitochondrial cytochrome b protein conferring resistance to Qo inhibitors • Use example 11: Sclerotinia sclerotiorum (SCLESC), solute with ultrasonic from a filter membrane
(§2) The plates were placed in a water vapor-saturated chamber at a temperature of 18° C. Using an absorption photometer, the MTPs were measured at 405 nm 7 days after the inoculation.
(§3) The measured parameters were compared to the growth of the active compound-free control variant (100%) and the fungus-free blank value to determine the relative growth in % of the pathogens in the respective active compounds.

[4] = system: Phakopsora pachyrhizi containing the amino acid substitution F129L in the mitochondrial cytochrome b protein; test: Use Example 2: protective control of soybean rust on soybeans (PHAKPA P6); format: in vivo; settings: inoculated six days after spraying, % diseased leaf area
Method in brief: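 Compound in acetone and/or DMSO with Wettol (99:1), diluted with water, was sprayed to run-off on potted soybean seedlings. After six days at 23–27°C and 60–80% RH, plants were inoculated with a Qo-resistant F129L strain and held 24 h at about 95% RH. Percent diseased leaf area was scored visually after up to 14 days.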

Puccinia recondita [5] = test: Use Example 4: preventative control of brown rust on wheat (PUCCRT P7); format: in vivo; settings: inoculated seven days after spraying, % diseased leaf area
Method in brief: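 First two leaves of potted wheat seedlings sprayed to run-off with compound in acetone/DMSO–emulsifier–water, then inoculated with Puccinia recondita spores seven days later. Plants held 24 h dark at 95–99% RH and 20–24 °C, then 9–11 days in greenhouse; diseased leaf area (%) scored visually.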

[6] = system: Drechslera teres (PYRNTE) containing the amino acid substitution F129L in the mitochondrial cytochrome b protein; test: Use example 10: microtest, growth of Drechslera teres (PYRNTE) F129L; format: cell-based; settings: relative growth vs compound-free control (100%), 7 days; for Growth (%) PYRNTE F129L Use ex. 10: 125 ppm, Table 12
Method: as §1, §2, §3

[7] = system: Leptosphaeria nodorum (LEPTNO); test: Use example 9: microtest, growth of Leptosphaeria nodorum (LEPTNO); format: cell-based; settings: relative growth vs compound-free control (100%), 7 days, Table 10
Method: as §1, §2, §3

| Structure (SMILES) | % PHAKPA (F129L) Disease level P2 at 4 ppm [1] [%] | % PHAKPA (F129L) Disease level P2 at 16 ppm [1] [%] | % PUCCRT Disease level K4 at 4 ppm (Puccinia recondita [2]) [%] | % PUCCRT Disease level K4 at 16 ppm (Puccinia recondita [2]) [%] | Growth at 31 ppm (%) CERCSO Use ex. 7 [3] [%] | % PHAKPA (F129L) Disease level P6 at 4 ppm [4] [%] | % PHAKPA (F129L) Disease level P6 at 16 ppm [4] [%] | % PUCCRT Disease level P7 at 4 ppm (Puccinia recondita [5]) [%] | % PUCCRT Disease level P7 at 16 ppm (Puccinia recondita [5]) [%] | Growth (%) CERCSO Use ex. 7 [3] [%] | Growth (%) PYRNTE F129L Use ex. 10 [6] [%] | Growth at 8 ppm (%) PYRNTE F129L Use ex. 10 [6] [%] | Growth at 125 ppm (%) LEPTNO Use ex. 9 [7] [%] |
| --- | --- | --- | --- | --- | --- | --- | --- | --- | --- | --- | --- | --- | --- |
| COC/C(=N\OCc1c(Cl)cccc1/C(=N\OC)C(=O)OC)c1cccc(Cl)c1 [compound 37] | 67 | 18 | 75 | 72 | 40 | 72 | 39 | 40 | 5 | – | – | – | – |
| COC/C(=N\OCc1c(C)cccc1/C(=N\OC)C(=O)OC)c1cccc(Cl)c1 [reference compound] | – | – | – | – | 60 | – | – | – | – | – | – | – | – |
| CNC(=O)/C(=N/OC)c1cccc(C)c1CO/N=C(\COC)c1ccc(Cl)cc1 [I.3-A-83, reference compound] | – | – | – | – | – | – | – | – | – | 89 | 26 | – | – |
| CO/C=C(/C(=O)OC)c1cccc(Cl)c1CO/N=C(\COC)c1cccc(F)c1 [compound 14, Methyl-(E)-2-[3-chloro-2-[[(Z)-[1-(3-fluorophenyl)-2-methoxy-ethylidene]amino]oxymethyl]phenyl]-3-methoxy-prop-2-enoate] | 3 | 0 | 22 | 1 | – | 2 | 0 | 13 | 2 | – | – | 3 | – |
| CO/C=C(/C(=O)OC)c1cccc(C)c1CO/N=C(\COC)c1cccc(F)c1 [1.2-A-75, reference compound] | – | – | – | – | – | – | – | – | – | – | – | 34 | – |
| CNC(=O)/C(=N/OC)c1cccc(Cl)c1CO/N=C(\COC)c1ccc(Cl)cc1 [compound 36] | 65 | 3 | 82 | 2 | – | 57 | 10 | 6 | 0 | 12 | 2 | – | – |
| COC/C(=N\OCc1c(C)cccc1/C(=N\OC)C(=O)OC)c1ccc(F)cc1 [I.2-A-82, reference compound] | – | – | – | – | – | – | – | – | – | – | – | – | 19 |
| CO/C=C(/C(=O)OC)c1cccc(F)c1CO/N=C(\COC)c1ccc(F)cc1 [compound 17] | 8 | 0 | 53 | 6 | – | 17 | 2 | 37 | 8 | – | – | – | 0 |
| CO/C=C(/C(=O)OC)c1cccc(Br)c1CO/N=C(\COC)c1ccc(F)cc1 [compound 10, Methyl-(E)-2-[3-bromo-2-[[(Z)-[1-(4-fluorophenyl)-2-methoxy-ethylidene]amino]oxymethyl]phenyl]-3-methoxy-prop-2-enoate] | 4 | 0 | 13 | 2 | – | 8 | 0 | 10 | 2 | – | – | – | 3 |
| CNC(=O)/C(=N/OC)c1cccc(Cl)c1CO/N=C(\COC)c1cccc(F)c1 [compound 41] | 3 | 0 | 72 | 12 | – | 14 | 1 | 23 | 4 | – | – | – | – |
| CCOC/C(=N\OCc1c(Cl)cccc1/C(=C\OC)C(=O)OC)c1c(F)cc(F)cc1F [compound 30] | 7 | 0 | 77 | 35 | – | 25 | 5 | 80 | 37 | – | – | – | – |
| CCOC/C(=N\OCc1c(Cl)cccc1/C(=N\OC)C(=O)NC)c1cccc(F)c1 [compound 42] | 11 | 0 | 70 | 42 | – | 32 | 4 | 62 | 12 | – | – | – | – |
| COC/C(=N\OCc1c(Cl)cccc1/C(=N\OC)C(=O)OC)c1ccc(F)cc1F [compound 62] | 5 | 0 | 37 | 2 | – | 6 | 0 | 55 | 1 | – | – | – | – |
| CNC(=O)/C(=N/OC)c1cccc(Cl)c1CO/N=C(\COC)c1c(F)cc(Cl)cc1F [compound 102] | 21 | 1 | 80 | 36 | – | 16 | 2 | 32 | 6 | – | – | – | – |
| CO/C=C(/C(=O)OC)c1cccc(Br)c1CO/N=C(/C#Cc1ccc(F)cc1)COC [compound 8, Methyl-(E)-2-[3-bromo-2-[[(Z)-[3-(4-fluorophenyl)-1-(methoxymethyl)prop-2-ynylidene]amino]oxymethyl]phenyl]-3-methoxy-prop-2-enoate] | 2 | 0 | 6 | 0 | – | 12 | 0 | 0 | 0 | – | – | – | – |
